Calls of active or inactive are those of the source. The calls are words filed in the database; no cut-off is given here.
How the values were obtained:
Assay type in all cases: functional, organism-based
Conditions in all cases: Trachea
Pseudomonas aeruginosa [1] = experiment: Antimicrobial activity against Pseudomonas aeruginosa 24E2 tracheal isolates from mechanically ventilated chronic respiratory insufficiency patient
Pseudomonas aeruginosa [2] = experiment: Antimicrobial activity against Pseudomonas aeruginosa 2A5 tracheal isolates from mechanically ventilated chronic respiratory insufficiency patient
Pseudomonas aeruginosa [3] = experiment: Antimicrobial activity against Pseudomonas aeruginosa 65.36-2 tracheal isolates from mechanically ventilated tuberculosis patient
Pseudomonas aeruginosa [4] = experiment: Antimicrobial activity against Pseudomonas aeruginosa 5H6 tracheal isolates from mechanically ventilated chronic respiratory insufficiency patient
Pseudomonas aeruginosa [5] = experiment: Antimicrobial activity against Pseudomonas aeruginosa 19F2 tracheal isolates from mechanically ventilated chronic respiratory insufficiency patient
Pseudomonas aeruginosa [6] = experiment: Antimicrobial activity against Pseudomonas aeruginosa 24E1 tracheal isolates from mechanically ventilated chronic respiratory insufficiency patient
Pseudomonas aeruginosa [7] = experiment: Antimicrobial activity against Pseudomonas aeruginosa 23C5 tracheal isolates from mechanically ventilated chronic respiratory insufficiency patient
Pseudomonas aeruginosa [8] = experiment: Antimicrobial activity against Pseudomonas aeruginosa 29G8 tracheal isolates from mechanically ventilated chronic respiratory insufficiency patient
Pseudomonas aeruginosa [9] = experiment: Antimicrobial activity against Pseudomonas aeruginosa 24D5 tracheal isolates from mechanically ventilated chronic respiratory insufficiency patient
Pseudomonas aeruginosa [10] = experiment: Antimicrobial activity against Pseudomonas aeruginosa 10A9 tracheal isolates from mechanically ventilated chronic respiratory insufficiency patient
Pseudomonas aeruginosa [11] = experiment: Antimicrobial activity against Pseudomonas aeruginosa 19E12 tracheal isolates from mechanically ventilated chronic respiratory insufficiency patient
Pseudomonas aeruginosa [12] = experiment: Antimicrobial activity against Pseudomonas aeruginosa 19C12 tracheal isolates from mechanically ventilated chronic respiratory insufficiency patient
Pseudomonas aeruginosa [13] = experiment: Antimicrobial activity against Pseudomonas aeruginosa 19D10 tracheal isolates from mechanically ventilated chronic respiratory insufficiency patient
Pseudomonas aeruginosa [14] = experiment: Antimicrobial activity against Pseudomonas aeruginosa 16D2 tracheal isolates from mechanically ventilated chronic respiratory insufficiency patient
Pseudomonas aeruginosa [15] = experiment: Antimicrobial activity against Pseudomonas aeruginosa 65.38-2 tracheal isolates from mechanically ventilated tuberculosis patient
Pseudomonas aeruginosa [16] = experiment: Antimicrobial activity against Pseudomonas aeruginosa 15H5 tracheal isolates from mechanically ventilated chronic respiratory insufficiency patient
Pseudomonas aeruginosa [17] = experiment: Antimicrobial activity against Pseudomonas aeruginosa 8C4 tracheal isolates from mechanically ventilated chronic respiratory insufficiency patient
Pseudomonas aeruginosa [18] = experiment: Antimicrobial activity against Pseudomonas aeruginosa 9A3 tracheal isolates from mechanically ventilated chronic respiratory insufficiency patient
Pseudomonas aeruginosa [19] = experiment: Antimicrobial activity against Pseudomonas aeruginosa 2A5 tracheal isolates from mechanically ventilated tuberculosis patient
Pseudomonas aeruginosa [20] = experiment: Antimicrobial activity against Pseudomonas aeruginosa 65.33-2 tracheal isolates from mechanically ventilated tuberculosis patient
Pseudomonas aeruginosa [21] = experiment: Antimicrobial activity against Pseudomonas aeruginosa 24E6 tracheal isolates from mechanically ventilated chronic respiratory insufficiency patient
Pseudomonas aeruginosa [22] = experiment: Antimicrobial activity against Pseudomonas aeruginosa 19C2 tracheal isolates from mechanically ventilated chronic respiratory insufficiency patient
Pseudomonas aeruginosa [23] = experiment: Antimicrobial activity against Pseudomonas aeruginosa 13D3 tracheal isolates from mechanically ventilated chronic respiratory insufficiency patient
Pseudomonas aeruginosa [24] = experiment: Antimicrobial activity against Pseudomonas aeruginosa 29G7 tracheal isolates from mechanically ventilated chronic respiratory insufficiency patient
Pseudomonas aeruginosa [25] = experiment: Antimicrobial activity against Pseudomonas aeruginosa 13D6 tracheal isolates from mechanically ventilated chronic respiratory insufficiency patient
Pseudomonas aeruginosa [26] = experiment: Antimicrobial activity against Pseudomonas aeruginosa 19B1 tracheal isolates from mechanically ventilated chronic respiratory insufficiency patient
Pseudomonas aeruginosa [27] = experiment: Antimicrobial activity against Pseudomonas aeruginosa 19F1 tracheal isolates from mechanically ventilated chronic respiratory insufficiency patient
Pseudomonas aeruginosa [28] = experiment: Antimicrobial activity against Pseudomonas aeruginosa 65.68-4 tracheal isolates from mechanically ventilated tuberculosis patient
Pseudomonas aeruginosa [29] = experiment: Antimicrobial activity against Pseudomonas aeruginosa 65.38-4 tracheal isolates from mechanically ventilated tuberculosis patient
Pseudomonas aeruginosa [30] = experiment: Antimicrobial activity against Pseudomonas aeruginosa 19C5 tracheal isolates from mechanically ventilated chronic respiratory insufficiency patient
Pseudomonas aeruginosa [31] = experiment: Antimicrobial activity against Pseudomonas aeruginosa 29H1 tracheal isolates from mechanically ventilated chronic respiratory insufficiency patient
Pseudomonas aeruginosa [32] = experiment: Antimicrobial activity against Pseudomonas aeruginosa 2A6 tracheal isolates from mechanically ventilated tuberculosis patient
Pseudomonas aeruginosa [33] = experiment: Antimicrobial activity against Pseudomonas aeruginosa 19B3 tracheal isolates from mechanically ventilated chronic respiratory insufficiency patient
Pseudomonas aeruginosa [34] = experiment: Antimicrobial activity against Pseudomonas aeruginosa 29G6 tracheal isolates from mechanically ventilated chronic respiratory insufficiency patient
Pseudomonas aeruginosa [35] = experiment: Antimicrobial activity against Pseudomonas aeruginosa 19E1 tracheal isolates from mechanically ventilated chronic respiratory insufficiency patient
Pseudomonas aeruginosa [36] = experiment: Antimicrobial activity against Pseudomonas aeruginosa 65.33-3 tracheal isolates from mechanically ventilated tuberculosis patient
Pseudomonas aeruginosa [37] = experiment: Antimicrobial activity against Pseudomonas aeruginosa 1B9 tracheal isolates from mechanically ventilated tuberculosis patient
Pseudomonas aeruginosa [38] = experiment: Antimicrobial activity against Pseudomonas aeruginosa 15G10 tracheal isolates from mechanically ventilated chronic respiratory insufficiency patient
Pseudomonas aeruginosa [39] = experiment: Antimicrobial activity against Pseudomonas aeruginosa IA5 tracheal isolates from mechanically ventilated tuberculosis patient
Pseudomonas aeruginosa [40] = experiment: Antimicrobial activity against Pseudomonas aeruginosa 65.18-4 tracheal isolates from mechanically ventilated tuberculosis patient
Pseudomonas aeruginosa [41] = experiment: Antimicrobial activity against Pseudomonas aeruginosa 2A1 tracheal isolates from mechanically ventilated tuberculosis patient
Pseudomonas aeruginosa [42] = experiment: Antimicrobial activity against Pseudomonas aeruginosa 24F4 tracheal isolates from mechanically ventilated chronic respiratory insufficiency patient
Pseudomonas aeruginosa [43] = experiment: Antimicrobial activity against Pseudomonas aeruginosa 24D1 tracheal isolates from mechanically ventilated chronic respiratory insufficiency patient

Compound	Activity (Pseudomonas aeruginosa [1])	Activity (Pseudomonas aeruginosa [2])	Activity (Pseudomonas aeruginosa [4])	Activity (Pseudomonas aeruginosa [5])	Activity (Pseudomonas aeruginosa [6])	Activity (Pseudomonas aeruginosa [7])	Activity (Pseudomonas aeruginosa [8])	Activity (Pseudomonas aeruginosa [9])	Activity (Pseudomonas aeruginosa [10])	Activity (Pseudomonas aeruginosa [11])	Activity (Pseudomonas aeruginosa [12])	Activity (Pseudomonas aeruginosa [13])	Activity (Pseudomonas aeruginosa [14])	Activity (Pseudomonas aeruginosa [15])	Activity (Pseudomonas aeruginosa [16])	Activity (Pseudomonas aeruginosa [17])	Activity (Pseudomonas aeruginosa [18])	Activity (Pseudomonas aeruginosa [21])	Activity (Pseudomonas aeruginosa [22])	Activity (Pseudomonas aeruginosa [23])	further results
GENTAMICIN	Active	Active	Active	Active	Active	Active	Active	Active	Active	Active	Active	Active	Active	inactive	Active	Active	Active	Active	Active	Active	Activity (Pseudomonas aeruginosa [3]): inactive; Activity (Pseudomonas aeruginosa [19]): Active; Activity (Pseudomonas aeruginosa [20]): Active; Activity (Pseudomonas aeruginosa [24]): Active; Activity (Pseudomonas aeruginosa [25]): Active; Activity (Pseudomonas aeruginosa [26]): Active; Antimicrobial activity (Pseudomonas aeruginosa [27]): Active; Activity (Pseudomonas aeruginosa [28]): Active; Activity (Pseudomonas aeruginosa [29]): inactive; Activity (Pseudomonas aeruginosa [30]): Active; Activity (Pseudomonas aeruginosa [31]): Active; Activity (Pseudomonas aeruginosa [32]): inactive; Activity (Pseudomonas aeruginosa [33]): Active; Activity (Pseudomonas aeruginosa [34]): Active; Activity (Pseudomonas aeruginosa [35]): Active; Activity (Pseudomonas aeruginosa [36]): inactive; Activity (Pseudomonas aeruginosa [37]): inactive; Activity (Pseudomonas aeruginosa [38]): Active
NCC[C@H](O)C(=O)N[C@@H]1C[C@H](N)[C@@H](O[C@H]2O[C@H](CN)[C@@H](O)[C@H](O)[C@H]2O)[C@H](O)[C@H]1O[C@H]1O[C@H](CO)[C@@H](O)[C@H](N)[C@H]1O	Active	Active	Active	Active	Active	Active	Active	Active	Active	Active	Active	Active	Active	inactive	Active	Active	Active	Active	Active	Active	Activity (Pseudomonas aeruginosa [39]): Active; Activity (Pseudomonas aeruginosa [40]): Active; Activity (Pseudomonas aeruginosa [24]): Active; Activity (Pseudomonas aeruginosa [41]): Active; Activity (Pseudomonas aeruginosa [25]): Active; Activity (Pseudomonas aeruginosa [42]): Active; Activity (Pseudomonas aeruginosa [26]): Active; Antimicrobial activity (Pseudomonas aeruginosa [27]): Active; Activity (Pseudomonas aeruginosa [28]): Active; Activity (Pseudomonas aeruginosa [29]): inactive; Activity (Pseudomonas aeruginosa [30]): Active; Activity (Pseudomonas aeruginosa [31]): Active; Activity (Pseudomonas aeruginosa [32]): inactive; Activity (Pseudomonas aeruginosa [33]): Active; Activity (Pseudomonas aeruginosa [34]): Active; Activity (Pseudomonas aeruginosa [35]): Active; Activity (Pseudomonas aeruginosa [43]): Active; Activity (Pseudomonas aeruginosa [36]): inactive; Activity (Pseudomonas aeruginosa [37]): inactive; Activity (Pseudomonas aeruginosa [38]): Active
